Data reported in patent US10517870B2, “Aryl substituted bicycle heteroaryl compounds” (Bristol-Myers Squibb Company, priority 2015, dated 2019).
pIC50: −log10 of the molar value.

Columns and labels:
[1] = biological target: T1, PAR4 (Homo sapiens, UniProt Q96RI0); test: PAR4 FLIPR assay (calcium mobilization, antagonist activity) in PAR4-expressing HEK293 cells; type: cell-based
T1 construct: expressed in transfected cells; host or cells: HEK293 PAR4 Clone 1.2A
T1 sequence (Q96RI0 18-385): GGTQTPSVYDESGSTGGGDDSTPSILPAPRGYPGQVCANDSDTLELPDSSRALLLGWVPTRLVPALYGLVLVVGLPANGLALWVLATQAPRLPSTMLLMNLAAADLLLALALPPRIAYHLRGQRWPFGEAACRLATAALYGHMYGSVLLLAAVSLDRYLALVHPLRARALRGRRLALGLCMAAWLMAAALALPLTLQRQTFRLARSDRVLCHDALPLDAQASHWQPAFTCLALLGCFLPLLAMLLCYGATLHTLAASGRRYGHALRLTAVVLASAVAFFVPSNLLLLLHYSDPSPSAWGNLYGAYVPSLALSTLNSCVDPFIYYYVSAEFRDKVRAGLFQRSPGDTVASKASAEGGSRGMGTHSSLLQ
Excerpt: The FLIPR assay is an exemplary in vitro assay for measuring the activity of the PAR4 antagonists of the present invention. In this assay, intracellular calcium mobilization is induced in PAR4 expressing cells by a PAR4 agonist and calcium mobilization is monitored.
HEK293 cells stably expressing PAR4 were generated by a standard method of transfection of human PAR4 (F2R23) cDNA expression vector and selected based on PAR4 protein expression or mRNA expression. […] These cells also express endogenous PAR1 and can elicit calcium signal upon stimulation with PAR1 agonist peptide. Therefore, the same cells were also used to determine selectivity against PAR1 and agonist activity for both receptors. Cells from HEK293 PAR4 Clone 1.2A (BMS Arctic ID 383940) were propagated and used for calcium mobilization studies.
FLIPR-based calcium mobilization assay in HEK293 cells was used to measure PAR4 antagonism, agonism, and selectivity against PAR1. The activity of the PAR4 antagonists of the present invention were tested in PAR4 expressing cells by monitoring H-Ala-Phe(4-F)-[…]NH2-induced intracellular calcium mobilization. Counter screens for agonist activity and PAR1 antagonist activity were also performed. Briefly, PAR1/PAR4-expressing HEK293 cells were grown in DMEM (Life Technology, Grand Island, N.Y.) containing 10% heat-inactivated FBS, 1% Penicillin-Streptomycin, 10 μg/mL blasticidin, and 100 μg/mL Zeocin at 37° C. with 5% CO2. Cells were plated overnight prior to the experiment in a black 384-well Purecoat Amine clear bottom plate (Becton Dickinson Biosciences, San Jose, Calif.) at 10,000 cells/well in 30 μL growth medium and incubated in a humidified chamber at 37° C. with 5% CO2 overnight. Prior to compound addition, the cell medium was replaced with 40 μL of IX calcium and magnesium-containing Hank's Balanced Saline Solution (HBSS) (with 20 mM HEPES) and 1:1000 diluted fluorescent calcium indicator (Codex Biosolutions, Gaithersburg, Md.). After a 30 minute incubation period at 37° C., and a further 30 minute incubation and equilibration period at room temperature, 20 μL test compound (diluted in 1×HBSS buffer) was added at various concentrations at 0.17% dimethyl sulfoxide (DMSO) final concentration. Changes in fluorescence intensity were measured using a Functional Drug Screening System (FDSS, Hamamatsu, Japan) to determine agonist activities. The cells were then incubated for 30 minutes at room temperature followed by addition of 20 μL of agonist peptide for antagonist activity measurement. […] Compound potency was derived from 11-point concentration-response curves.

[2] = test system: Caski (HPV16+) cells; test: Cell proliferation/viability assay, Caski cells; type: cell-based; details: Homo sapiens, Ca-Ski, 96 h, 4 days
Experimental: Caski (catalog number CRL-1550), SiHa (catalog number HTB-35), C33A (catalog number HTB-31), Saos-2 (ATCC HTB-85), and Hela (catalog number CCL-2) cells were obtained from the American Type Culture Collection (ATCC). The human cervical carcinoma cell lines Caski. SiHa, Hela and C33A, and the human osteosarcoma cell line Saos-2, and the human keratinocyte cell line HaCaT were cultured in Dulbecco's Modified Eagle Medium (DMEM, Invitrogen catalog number 11965-092) supplemented with 10% fetal bovine serum. The colorectal carcinoma cell line HCT-116 was cultured in Roswell Park Memorial Institute-1640 Medium (Invitrogen catalog number 11875-093) supplemented with 10% FBS. All cells were incubated at 37° C. in a humidified atmosphere with 5% CO2 in air. To establish the SCHPV-18 cell line, one million primary neonatal human foreskin keratinocytes (Invitrogen, catalog no. C-001-5C), cultured in KBM Gold-keratinocvte cell basal medium (Lonza, catalog no. 192060), were electroporated with 5 μg HPV-18 plasmid DNA (ATCC catalog no. 45152D) using the Amaxa Nucleofector II on setting T-007. Cells were co-transfected with 2 μg plasmid pZSGreen1-N1 (Clontech catalog no. 632448) encoding G418 resistance, and cells were selected for four days in 100 μg/ml G418, after which selection was removed. Cells were maintained in culture six months prior to compound testing. Integration of the HPV 18 genome was confirmed by Southern blot. Control cells transfected in parallel with pZSGreen1-N1 alone became senescent four days after selection and the culture could not be expanded. SCHPV-18 cells were maintained in E medium (Fehrmann F, Laimins L A. Human papillomavirus type 31 life cycle: methods for study using tissue culture models. Methods Mol Biol 2005; 292:317-330).
For proliferation assays, cells were plated in white polystyrene 96-well plates (Costar catalog number 3917) for CellTiter Glo viability assays or 96-well special optics plates (Costar cat #3614) for CellTiter Blue viability assays. Cells were plated in the appropriate growth medium without antibiotics. Two hours after cell plating, a 200× compound stock diluted in DMSO was added to a final concentration of 0.5%. Plates were incubated at 37° C., for 4 days and then cell viability was assessed using either CellTiter Blue (Promega catalog number G8081) or CellTiter Glo (Promega catalog number G7572) according to the manufacturer's instructions. For the CellTiter Blue viability assay, data was collected using the SpectraMax Gemini EM (Molecular Devices) with an excitation wavelength of 530 nm and emission wavelength of 590 nm. For the CellTiter Glo viability assay, data was collected using the Envision Mulitlabel Reader (Perkin Elmer catalog number 2104-0010). To calculate IC50 and EC50 values, percent inhibition curves were fit using a four-parameter logistic formula [y=A+[…]], where A and B denote minimal and maximal % inhibition, respectively, C is the IC50 value, D is the Hill slope, and x represents compound concentration.
Table C, below, sets out the results obtained employing various compounds of the invention tested for their effects on proliferation of such cells. Caski or SiHa cells, transformed by HPV 16, Hela cells, transformed by HPV 18, or HPV-negative control cell lines (Saos-2 or C33a) were treated with various compounds. […] Unlike the HPV-negative Saos-2 or C33a cell lines, the HPV-transformed cell lines rely on the presence of HPV for their continued proliferation. Therefore, a comparison of IC50 values from HPV-transformed cell lines with IC50 values obtained from HPV-negative cell lines can be used to test for compound selectivity.

COc1ccc(-c2cc(C)cc3nc(OC(F)F)cnc23)cc1 [Example 6, 2-(difluoromethoxy)-5-(4-methoxyphenyl)-7-methylquinoxaline]
pIC50 [1]: 5.62
pIC50 [2]: 5.15
